Results from US6605638B1, “Use of branched chain fatty acids and derivatives thereof for inhibition of P-glycoprotein” (D-Pharm Limited, priority 2000, dated 2003).

Legend:
[1] = system: MES-SA/Dx5 cells; assay: MTT assay of doxorubicin toxicity in multi-drug resistant cells; conditions: for % Toxicity: alone, 72 hours
[2] = target: T1, P-glycoprotein (Bos taurus, UniProt A0A3Q1MB23); assay: Vincristine accumulation (uptake) in endothelial cells, in vitro BBB model
[3] = system: endothelial cell monolayers; assay: [14C]-sucrose permeability (integrity) of endothelial cell monolayers, in vitro BBB model
[4] = target: T1, P-glycoprotein; assay: Vincristine transport/clearance across endothelial cell monolayers, in vitro BBB co-culture model; type: cell-based, bovine; parameters: P-glycoprotein is expressed in cultured endothelial cells; endogenous in cells; host or cells: primary bovine brain capillary endothelial cells, co-cultured with newborn rat astrocytes in the lower compartment

T1 sequence (A0A3Q1MB23 1-1267): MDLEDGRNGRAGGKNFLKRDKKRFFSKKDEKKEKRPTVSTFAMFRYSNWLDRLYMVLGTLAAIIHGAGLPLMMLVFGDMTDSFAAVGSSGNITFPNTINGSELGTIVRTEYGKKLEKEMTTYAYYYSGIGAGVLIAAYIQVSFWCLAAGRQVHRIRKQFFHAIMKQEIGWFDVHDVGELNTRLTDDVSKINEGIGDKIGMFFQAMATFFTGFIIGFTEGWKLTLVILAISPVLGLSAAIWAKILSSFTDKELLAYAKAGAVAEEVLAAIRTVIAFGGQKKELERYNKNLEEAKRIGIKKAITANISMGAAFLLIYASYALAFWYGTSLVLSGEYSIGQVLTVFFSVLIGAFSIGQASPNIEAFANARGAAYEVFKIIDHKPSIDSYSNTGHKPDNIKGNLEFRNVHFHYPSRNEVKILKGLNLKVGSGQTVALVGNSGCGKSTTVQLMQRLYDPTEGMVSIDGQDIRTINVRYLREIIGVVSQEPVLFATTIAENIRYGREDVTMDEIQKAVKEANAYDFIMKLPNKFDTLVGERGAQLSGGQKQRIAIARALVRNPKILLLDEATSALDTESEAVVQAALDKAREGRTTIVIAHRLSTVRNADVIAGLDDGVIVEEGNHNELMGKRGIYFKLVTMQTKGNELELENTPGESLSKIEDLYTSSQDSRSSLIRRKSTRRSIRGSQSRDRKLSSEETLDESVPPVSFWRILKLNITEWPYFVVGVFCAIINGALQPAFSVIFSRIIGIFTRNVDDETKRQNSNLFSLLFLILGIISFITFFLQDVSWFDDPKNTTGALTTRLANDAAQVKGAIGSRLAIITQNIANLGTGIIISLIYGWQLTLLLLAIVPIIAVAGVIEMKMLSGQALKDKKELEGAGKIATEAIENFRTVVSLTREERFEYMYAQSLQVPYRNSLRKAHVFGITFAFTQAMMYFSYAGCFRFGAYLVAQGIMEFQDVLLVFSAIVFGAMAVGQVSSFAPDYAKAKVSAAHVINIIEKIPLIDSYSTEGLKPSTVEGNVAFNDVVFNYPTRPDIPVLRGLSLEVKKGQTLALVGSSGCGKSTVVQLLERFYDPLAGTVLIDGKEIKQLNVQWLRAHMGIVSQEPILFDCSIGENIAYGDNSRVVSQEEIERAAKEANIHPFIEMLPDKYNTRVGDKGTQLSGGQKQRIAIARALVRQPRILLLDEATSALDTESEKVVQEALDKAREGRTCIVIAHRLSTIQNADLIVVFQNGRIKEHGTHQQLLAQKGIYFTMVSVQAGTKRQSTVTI

Structure (SMILES): CCCCCCCCCCC(CCC)C(=O)O (stereo not drawn) [DP-3,10, 2-propyldodecanoic acid]
- % Toxicity ([1]; 12.5 μg/ml): 0.1%

Structure (SMILES): CCCCCCCCCCCCCCC(CCC)C(=O)O (stereo not drawn) [DP-3,14, 2-propylhexadecanoic acid]
- Cellular accumulation of vincristine compared with verapamil ([2]; Example 4, 0.08 and 0.16 mg/ml, 60 min): more pronounced than the same effect induced by verapamil
- Increase in vincristine uptake compared with verapamil ([2]; Example 5, 0.001, 0.005 or 0.01 mg/ml, 60 min): lower than that observed with verapamil
- Vincristine accumulation in the cells relative to that caused by verapamil ([2]; Example 5, 0.02 or 0.08 mg/ml, 60 minute incubation): 2-3 fold
- Paracellular breakdown (opening of the tight junctions) of endothelial cells ([3]; 0.01 mg/ml, 48 hours incubation): no paracellular breakdown
- Sucrose permeability of the monolayer ([3]; Example 4, 0.08 mg/ml, 60 min): 274%
- Sucrose permeability of the monolayer ([3]; Example 4, 0.16 mg/ml, 60 min): 266%
- Sucrose permeability of the monolayer ([3]; Example 4, […], 60 min): 278%
- Sucrose permeability of the monolayer (significant decrease) ([3]; Example 5, 0.001 mg/ml): 66%
- Sucrose permeability of the monolayer (significant decrease) ([3]; Example 5, 0.005 mg/ml): 68%
- Sucrose permeability of the monolayer ([3]; Example 5, 0.01 mg/ml): No change
- Sucrose permeability of the monolayer ([3]; Example 5, 0.02 mg/ml, 60 min): 452%
- Sucrose permeability of the monolayer ([3]; Example 5, 0.08 mg/ml, 60 min): 574%
- Transport of sucrose (paracellular marker) ([3]; Example 5 conclusion, 0.001—0.01 mg/ml): no increase
- Clearance of vincristine ([4]; Example 4, even with lowest concentration 0.08 mg/ml, similar to control without cells): significant clearance
- Transport of vincristine ([4]; Example 5, 0.001 mg/ml): significant increase
- Transport of vincristine ([4]; Example 5, 0.02 and 0.08 mg/ml): Larger effects
- Transport of vincristine ([4]; Example 5 conclusion, low concentration 0.001—0.01 mg/ml): increase

Structure (SMILES): C#CCC(CCCCCCCCCCCC)C(=O)O (stereo not drawn) [DP-3-yl,12, 2,3-propynyltetradecanoic acid]
- % Toxicity ([1]; 3.125 μg/ml): 0.48%

Structure (SMILES): CCCCCCCC(CCCCCCC)C(=O)O [DP-7,7, 2-heptylnonanoic acid]
- % Toxicity ([1]; 3.125 μg/ml): 0.1%

Structure (SMILES): COc1cccc2c1C(=O)c1c(O)c3c(c(O)c1C2=O)C[C@@](O)(C(=O)CO)C[C@@H]3O[C@H]1C[C@H](N)[C@H](O)[C@H](C)O1 [Dox, doxorubicin, reference compound]
- % Toxicity ([1]; 0.125 μg/ml): 0%
- Concentration up to which MES-SA/Dx5 cells are resistant ([1]; calibration experiments): ≤ 250 ng/mL

Structure (SMILES): CC[C@]1(O)C[C@H]2CN(CCc3c([nH]c4ccccc34)[C@@](C(=O)OC)(c3cc4c(cc3OC)N(C=O)[C@H]3[C@@](O)(C(=O)OC)[C@H](OC(C)=O)[C@]5(CC)C=CCN6CC[C@]43[C@@H]65)C2)C1 [vincristine, [γ-^3H]Vincristine sulphate, reference compound]
- Toxicity for the endothelial cells / integrity of the monolayers ([3]; Example 4, 50 nM vincristine, verapamil 25 μM): not toxic
- Permeability coefficient for [14C]-sucrose (Pesucrose) ([3]; Example 4, with 50 nM vincristine): 1.33±0.08 ×10^−3 cm/min
